From patent US9586896B2, “Nitroxyl donors with improved therapeutic index” (Cardioxyl Pharmaceuticals, Inc., priority 2013, dated 2017) come the findings set out here.

For series [1], the system named is heart failure canines (tachycardia-pacing model). Description: Hemodynamic efficacy in heart failure canines (tachycardia-pacing model). The format is in vivo, beagle dogs. To be noted: for hemodynamic activity relative to CXL-1020: both normal and failing canine models; for hemodynamic effects produced: normal and failing canine models, FIGS. 1-2. The protocol: The cardiovascular effects of nitroxyl donors were examined by means of pressure-volume (PV) curve (loops) analysis in conscious, sling-restrained beagle dogs. Animals were allowed free access to drinking water and a commercial canine diet under standard laboratory conditions. Fluorescent lighting was provided via an automatic timer for approximately 12 hours per day. On occasion, the dark cycle was interrupted intermittently due to study-related activities. Temperature and humidity were monitored and recorded daily and maintained to the maximum extent possible between 64° F. and 84° F. and 30% to 70%, respectively. The dogs were acclimated for a period of at least 1 week prior to surgery. Following surgery and recovery the animals were acclimated to sling restraint for a period up to 4.5 hours. Animals were fasted overnight prior to surgery.
Once a stable (surgical) plane of anesthesia had been established, a left-thoracotomy was performed (under strict aseptic conditions) and each animal was chronically instrumented with sono-micrometry crystals providing left-ventricular (LV) dimensions/volume. Additionally, a fluid-filled catheter and a solid-state monometer were placed in the left ventricle for pressure monitoring. A fluid-filled catheter was placed in the right ventricle (RV) and the aorta (Ao) for pressure monitoring/test article administration. […] The catheters/wires were aseptically tunneled and externalized between the scapulae. Over the course of the study, fluid-filled catheters were regularly (at least once weekly) flushed with a locking-solution in order to prevent both clotting and bacterial growth (2-3 mL of Taurolidine-Citrate solution, TCS-04; Access Technologies).
Following the cardiovascular instrumentation, the right jugular vein was carefully exposed and cannulated with a bipolar pacing lead/catheter (CAPSUREFIX® Novus; Medtronic). Under fluoroscopic guidance, this pacing lead was advanced normograde into the right ventricle and actively affixed (screwed in) to the apical endocardium. The proximal end of the lead was secured to the pacing device (Kappa 900; Medtronic). Subsequently, the pacemaker was placed/secured in a subcutaneous pocket in the neck.
Following a recovery from surgery and/or sufficient washout period from dosing with a nitroxyl donor, animals were subjected to a 3-week overdrive pacing (210 ppm) protocol aimed to trigger left-ventricular dysfunction/remodeling consistent with the heart failure syndrome. In short, via the implanted pacemaker/right-ventricular lead, the ventricle(s) was asynchronously and continuously paced at 210 beats per minute (bpm). Left-ventricular remodeling (and heart failure induction) were confirmed by both echocardiographic (e.g., ejection fraction (EF)) decrease from about 60% to a target of about 35%, left ventricular (LV) dilatation) and neuro-humoral (e.g., N-terminal pro-brain natriuretic peptide (NT proBNP) elevation to greater than 1800 pM/L from a baseline of about 300 pM/L) changes after approximately 3 weeks of pacing. Echocardiographs and blood samples were collected in the absence of pacing (for at least 15 min).
The animals (normal or heart failure) were studied during treatment with both vehicle (control) and a nitroxyl donor (either CXL-1020, a compound of formula (1) or a compound of formula (2)). At each dosing period, conscious sling-restrained animals were continuously monitored for up to two to three hours. Following hemodynamic stabilization, infusion of the vehicle was started. […] Infusion of the vehicle was continued and after 30 min another (baseline) set of hemodynamic data was collected. Following collection of baseline hemodynamic data, infusion of the nitroxyl donor compound being tested was initiated and derived hemodynamic/functional parameters were obtained/performed at up to four (4) time points selected from the following: at 30, 60, 90, 120, and 180 minutes after the onset of vehicle/test compound infusion. […]

The next series deals with dogs. Put plainly: Microscopic pathology of the vasculature, canine implanted central catheter 72 hour model. As to conditions: edema, vascular/perivascular inflammation, hemorrhage, molar equivalent dose rates to CXL-1020. The format is in vivo, beagle dogs. The protocol: Confirmation was obtained through evaluating the nitroxyl donors through detailed histopathology of the vasculature at the site of insertion of into the femoral vein (15 cm distal to the catheter tip), along the catheter track to the catheter tip, and past the tip downstream 20 cm.
A composite lab score was calculated from the sum of these findings scores. In FIG. 5, the cumulative histology composite lab score ranges from 0-2 (low severity) to 11-12 (high severity). […] The NOAEL values determined based on these microscopic pathology markers for a series of nitroxyl donors, expressed in molar equivalent dose rates (μg/kg/min) to CXL-1020, are provided in Table 8.

Series [2] is described as follows: In vitro stability (half-life) in PBS pH 7.4. As to conditions: pH 7.4, aerated PBS pH 7.4, 37° C., read-out: T1/2 (minutes) PBS. The format is physicochemical. The procedure:
Compound (1), compound (2), and CXL-1020 were tested for their stability in plasma. The assay system comprised (i) PBS, or plasma from rat, dog or human (at least 3 donors, male, pooled) at pH 7.4, and (ii) for tests conducted in plasma, an anticoagulant (sodium heparin or sodium citrate). Each test compound (5 μM) was incubated in PBS or plasma at 37° C. on a THERMOMIXER® with shaking Three samples (n=3) were taken at each of seven sampling time points: 0, 10, 30, 60, 90, 180 and 360 minutes. The samples were immediately combined with 3 volumes (i.e., 3 times the volume of PBS or plasma) of acetonitrile containing 1% formic acid and an internal standard to terminate the reaction. AB SCIEX API 3000 LC-MS/MS analysis of the test compounds was performed without a standard curve. Half-lives (T1/2) of the test compounds were determined from graphs of the percent remaining values using the peak area response ratio.

Where [3] appears, read: heart failure canines, i.v. infusion, dose rate 75 (μmol/kg/min [sic]).

Molecules are shown by their SMILES.

Take `CS(=O)(=O)c1ccccc1S(=O)(=O)NO` [CXL-1020, N-hydroxy-2-methanesulfonylbenzene-1-sulfonamide]: in series [1] (heart failure canines, i.v. infusion, dose rate 100 (μmol/kg/min [sic])), the “HR (% Change from Baseline)” value is −0.23 ± 2.25%. The “NOAEL (μg/kg/min), microscopic pathology markers” value with dogs is below 3 μg/kg/min. For the same molecule, the half-life at 5 μM in series [2] was 2 min.
As for `Cc1ccc(S(=O)(=O)NO)o1` [Compound (1), N-Hydroxy-5-methylfuran-2-sulfonamide], in series [1], the “hemodynamic activity relative to CXL-1020” value is recorded as “comparable hemodynamic activity to CXL-1020”; the hemodynamic effects produced entry was “significant enhancement of inotropy and lusitropy, and modest reductions in blood pressure”. Besides, in series [1] (setting [3]), the “EDV (% Change from Baseline)” value is −9 ± 2%, the “ESP (% Change from Baseline)” value is −17 ± 1%, the “ESPVR (% Change from Baseline)” value worked out at 29 ± 1% and the “HR (% Change from Baseline)” value is −6 ± 2%. Moreover, in series [1] (setting [3]), the “PRSW (% Change from Baseline)” value stood at 22 ± 1%, the “SW (% Change from Baseline)” value is given as −9 ± 2% and the “Tau (% Change from Baseline)” value is reported as −16 ± 4%. The “NOAEL (μg/kg/min), microscopic pathology markers” value in the series with dogs is on record as “≧180 μg/kg/min”. Moreover, in series [2], the half-life at 5 μM was around 68 min.
On to `CS(=O)(=O)c1cccc(S(=O)(=O)NO)c1` [(2), N-Hydroxy-3-methanesulfonylbenzene-1-sulfonamide], for which, in series [1], the “hemodynamic activity relative to CXL-1020” value is “comparable hemodynamic activity to CXL-1020”; the hemodynamic effects produced result was “significant enhancement of inotropy and lusitropy, and modest reductions in blood pressure”. Moreover, in the series on dogs, the “NOAEL (μg/kg/min), microscopic pathology markers” value was “≧180 μg/kg/min”. For the same molecule, in series [2], the half-life at 5 μM is around 50 min.
